In patent US20240360151A1 (SANOFI, priority 2023, published 2024) one finds IC50 data, which are given here for 31 molecules.

Each structure is given as a SMILES string.

One test deals with T1, NLRP3 inflammasome (Homo sapiens, UniProt Q96P20).
T1 construct: endogenous in cells; host or cells: THP-1 monocytic cells
Description: IL-1β secretion assay (NLRP3 IC50) in LPS-primed, nigericin-activated THP-1 cells, HTRF. In kind it is cell-based. Particulars: monocytic THP-1 cells; LPS 10 ng/mL 3 h priming, then compound + nigericin 10 μM 2 h; relative IC50, 10 concentrations, geometric mean. The method, boiled down: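 THP-1 cells primed with LPS 10 ng/mL for 3 h at 37° C., then compound (10-point 1:3 dilution, 0.1% DMSO) added with 10 μM nigericin for 2 h. Supernatant IL-1β measured by HTRF; relative IC50 from a 4-parameter logistic fit, reported as geometric mean.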
A general note: Time-resolved FRET reads energy transfer from a long-lived donor to a nearby acceptor.

Test [1] concerns NF-kB pathway (TNF-α secretion by THP-1 cells). Description: TNF-α secretion assay in LPS-stimulated THP-1 cells, Lumit immunoassay. Particulars: Homo sapiens, THP-1, 3 h, monocytic THP-1 cells, LPS 10 ng/mL, relative IC50, 10 concentrations, geometric mean. In kind it is cell-based, human. The method, boiled down: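 THP-1 monocytes in RPMI with 5% FBS were treated with compound, then stimulated with 10 ng/mL LPS for 3 h. Secreted TNF-α was measured in-plate by Lumit immunoassay. Relative IC50 came from 10-concentration curves fitted with a 4-parameter logistic model, reported as geometric mean.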

T1 sequence (Q96P20 whole entry): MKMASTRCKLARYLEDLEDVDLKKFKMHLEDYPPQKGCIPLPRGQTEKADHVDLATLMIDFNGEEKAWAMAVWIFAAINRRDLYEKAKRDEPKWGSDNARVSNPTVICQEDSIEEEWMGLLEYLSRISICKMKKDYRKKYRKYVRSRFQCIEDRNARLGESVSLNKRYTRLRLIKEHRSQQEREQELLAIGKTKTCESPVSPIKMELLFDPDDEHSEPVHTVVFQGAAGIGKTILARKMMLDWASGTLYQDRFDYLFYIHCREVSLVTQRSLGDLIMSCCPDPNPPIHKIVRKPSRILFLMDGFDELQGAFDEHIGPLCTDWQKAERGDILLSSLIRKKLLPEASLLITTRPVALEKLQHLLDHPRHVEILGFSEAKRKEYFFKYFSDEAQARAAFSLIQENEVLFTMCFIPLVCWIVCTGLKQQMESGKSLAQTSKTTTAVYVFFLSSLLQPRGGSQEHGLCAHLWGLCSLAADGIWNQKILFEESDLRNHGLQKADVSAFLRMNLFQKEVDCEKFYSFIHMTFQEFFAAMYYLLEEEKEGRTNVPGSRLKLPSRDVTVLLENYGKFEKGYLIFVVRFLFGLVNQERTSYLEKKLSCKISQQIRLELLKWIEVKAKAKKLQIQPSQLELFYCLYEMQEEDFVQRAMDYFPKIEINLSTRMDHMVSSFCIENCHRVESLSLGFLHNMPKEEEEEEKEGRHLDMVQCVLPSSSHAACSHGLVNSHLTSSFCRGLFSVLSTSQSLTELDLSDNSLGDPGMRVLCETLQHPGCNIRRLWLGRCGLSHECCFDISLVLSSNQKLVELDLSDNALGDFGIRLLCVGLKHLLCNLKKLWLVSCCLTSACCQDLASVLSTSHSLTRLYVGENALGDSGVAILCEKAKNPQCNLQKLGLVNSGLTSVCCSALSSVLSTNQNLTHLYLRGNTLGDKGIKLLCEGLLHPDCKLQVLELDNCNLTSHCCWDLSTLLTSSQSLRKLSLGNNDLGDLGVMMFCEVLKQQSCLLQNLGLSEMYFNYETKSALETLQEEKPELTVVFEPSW

The term IC50 denotes the concentration that gives 50% inhibition. As for `Cc1ccc(F)c(O)c1-c1ccc(N2CCO[C@@H]3CCN(C)C[C@@H]32)nn1` [Example 353, 2-[6-[(4aS,8aR)-6-methyl-3,4a,5,7,8,8a-hexahydro-2H-pyrido[4,3-b][1,4]oxazin-4-yl]pyridazin-3-yl]-6-fluoro-3-methyl-phenol], the IC50 at NLRP3 inflammasome was 29 nM; in test [1], over 10000 nM.

As to `Cc1ccc(-c2nnc(N3CCO[C@H](CO)C3)cc2C)c(O)c1` [Example 76, 2-[6-[(2S)-2-(hydroxymethyl)morpholin-4-yl]-4-methyl-pyridazin-3-yl]-5-methyl-phenol], the IC50 at NLRP3 inflammasome was determined as 66 nM; in test [1] it was 8600 nM.

As for `Cc1cc(C)c(-c2ccc(N3CCO[C@@H]4COCC[C@H]43)nn2)c(O)c1` (racemic) [Example 154, 3,5-dimethyl-2-[6-[rac-(4aR,8aS)-3,4a,5,7,8,8a-hexahydro-2H-pyrano[3,4-b][1,4]oxazin-1-yl]pyridazin-3-yl]phenol], the IC50 at NLRP3 inflammasome was 344 nM; in test [1], over 10000 nM.

As for `Cc1cc(C)c(-c2ccc(N3CCOc4ccc(O)cc43)nn2)c(O)c1` [Example 162, 4-[6-(2-hydroxy-4,6-dimethyl-phenyl)pyridazin-3-yl]-2,3-dihydro-1,4-benzoxazin-6-ol], the IC50 was 10 nM at NLRP3 inflammasome and over 10000 nM in test [1].

On to `Cc1cc(C)c(-c2ccc(N3CCO[C@@H](CF)C3)nn2)c(O)c1` [Example 220, 2-[6-[(2R)-2-(fluoromethyl)morpholin-4-yl]pyridazin-3-yl]-3,5-dimethyl-phenol], for which the concentration for half-maximal inhibition (IC50) at NLRP3 inflammasome was 108 nM; in test [1], over 10000 nM.

Turning to `Cc1ccc(-c2nnc(N3CCO[C@@H]4CCN(C)C[C@@H]43)cc2C(F)F)c(O)c1` [Example 295, 2-[6-[(4aS,8aR)-6-methyl-3,4a,5,7,8,8a-hexahydro-2H-pyrido[4,3-b][1,4]oxazin-4-yl]-4-(difluoromethyl)pyridazin-3-yl]-5-methyl-phenol], the IC50 on NLRP3 inflammasome was 2 nM; in test [1], over 10000 nM.

As for `Cc1ccc(-c2nnc(N3CCO[C@H](CO)C3)c3c2CCC3)c(O)c1` [Example 77, 2-[4-[(2S)-2-(hydroxymethyl)morpholin-4-yl]-6,7-dihydro-5H-cyclopenta[d]pyridazin-1-yl]-5-methyl-phenol], the results for the IC50 (on NLRP3 inflammasome; in test [1]) were 135 nM and over 10000 nM, respectively.

As to `Cc1cc(C(F)(F)F)cc(O)c1-c1ccc(N2CCO[C@H]3CCN(C)C[C@@H]32)nn1` (single isomer, unassigned) [Example 343], the IC50 at NLRP3 inflammasome is 47 nM; in test [1] it was over 10000 nM.

Turning to `Cc1cc(C)c(-c2ccc(N3CCO[C@H](CCO)C3)nn2)c(O)c1` (single isomer, unassigned) [Example 233], the concentration for half-maximal inhibition (IC50) at NLRP3 inflammasome is 164 nM; in test [1], over 10000 nM.

With `NC[C@H]1CCCN(c2ccc(-c3c(O)cc(Cl)cc3Cl)nn2)C1` [Example 22, 2-[6-[(3R)-3-(aminomethyl)-1-piperidyl]pyridazin-3-yl]-3,5-dichloro-phenol], the IC50 at NLRP3 inflammasome is 153 nM; in test [1] it was over 10000 nM.

For the molecule `Cc1ccc(C)c(-c2ccc(N3CCO[C@H](CO)C3)nn2)c1O` [Example 141, 2-[6-[(2S)-2-(hydroxymethyl)morpholin-4-yl]pyridazin-3-yl]-3,6-dimethylphenol], the 50% inhibitory concentration (IC50) is 131 nM at NLRP3 inflammasome and over 10000 nM in test [1].

For `Cc1cc(C)c(-c2ccc(N3CC[C@@H](O)C3)nn2)c(O)c1` [Example 70, (3R)-1-[6-(2-hydroxy-4,6-dimethyl-phenyl)pyridazin-3-yl]pyrrolidin-3-ol], the IC50 is 467 nM at NLRP3 inflammasome and over 10000 nM in test [1].

Consider `COc1ccc(-c2nnc(N3CCO[C@H](CO)C3)cc2C)c(O)c1` [Example 116, 2-[6-[(2S)-2-(hydroxymethyl)morpholin-4-yl]-4-methyl-pyridazin-3-yl]-5-methoxy-phenol], for which the figures for the IC50 (at NLRP3 inflammasome; in test [1]) were 454 nM and over 10000 nM, respectively.

`Cc1cc(C(F)(F)F)cc(O)c1-c1ccc(N2CC[C@H](CO)C2)nn1` [Example 20, 2-[6-[(3S)-3-(hydroxymethyl)pyrrolidin-1-yl]pyridazin-3-yl]-3-methyl-5-(trifluoromethyl)phenol]: the IC50 at NLRP3 inflammasome is 44 nM; in test [1], over 10000 nM.

With `CCC(=O)C1CN(c2ccc(-c3c(C)cc(C)cc3O)nn2)CCO1` (single isomer, unassigned) [Example 157], the figures for the IC50 (on NLRP3 inflammasome; in test [1]) were 314 nM and over 10000 nM, respectively.

With `Cc1cc(C)c(-c2ccc(N3C[C@H](CO)CC3=O)nn2)c(O)c1` (single isomer, unassigned) [Example 137], the IC50 is 411 nM at NLRP3 inflammasome and over 10000 nM in test [1].

As to `Cc1cc(Cl)cc(O)c1-c1nnc(N2CCO[C@H](CO)C2)cc1CO` [Example 188, 5-chloro-2-[4-(hydroxymethyl)-6-[(2S)-2-(hydroxymethyl)morpholin-4-yl]pyridazin-3-yl]-3-methyl-phenol], the figures for the IC50 (at NLRP3 inflammasome; in test [1]) were 414 nM and over 10000 nM, respectively.

In the case of `Cc1cccc(O)c1-c1ccc(N2CCO[C@@H]3CCN(C)C[C@@H]32)nn1` [Example 354, 2-[6-[(4aS,8aR)-6-methyl-3,4a,5,7,8,8a-hexahydro-2H-pyrido[4,3-b][1,4]oxazin-4-yl]pyridazin-3-yl]-3-methyl-phenol], the IC50 was 20 nM at NLRP3 inflammasome and over 10000 nM in test [1].

With `Cc1cc(C(F)(F)F)cc(O)c1-c1ccc(N2CCO[C@H]3CCN(C)C[C@H]32)nn1` (racemic) [Example 226, 2-[6-[rac-(4aR,8aS)-6-methyl-3,4a,5,7,8,8a-hexahydro-2H-pyrido[4,3-b][1,4]oxazin-4-yl]pyridazin-3-yl]-3-methyl-5-(trifluoromethyl)phenol], the figures for the 50% inhibitory concentration (IC50) (on NLRP3 inflammasome; in test [1]) were 2 nM and over 10000 nM, respectively.

Turning to `Cc1cc(C(F)(F)F)cc(O)c1-c1ccc(N2C[C@@H](CO)O[C@H](CO)C2)nn1` [Example 199, 2-[6-[(2S,6S)-2,6-bis(hydroxymethyl)morpholin-4-yl]pyridazin-3-yl]-3-methyl-5-(trifluoromethyl)phenol], the results for the half-inhibitory concentration (IC50) (on NLRP3 inflammasome; in test [1]) were 4 nM and over 10000 nM, respectively.

Take `[2H]C([2H])(O)[C@@H]1CN(c2ccc(-c3c(C)cc(C)cc3O)nn2)CCO1` [Example 165, 2-[6-[(2S)-2-[dideuterio(hydroxy)methyl]morpholin-4-yl]pyridazin-3-yl]-3,5-dimethylphenol]: the IC50 at NLRP3 inflammasome is 42 nM; in test [1], 5620 nM.

Take `Cc1cc(C(F)(F)F)cc(O)c1-c1ccc(N2CCC(CO)CC2=O)nn1` (single isomer, unassigned) [Example 293]: the values for the IC50 (at NLRP3 inflammasome; in test [1]) were 84 nM and over 10000 nM, respectively.

Regarding `CN1CC2(CCN(c3ccc(-c4c(O)cc(Cl)cc4Cl)nn3)CC2)C1` [Example 55, 3,5-dichloro-2-[6-(2-methyl-2,7-diazaspiro[3.5]nonan-7-yl)pyridazin-3-yl]phenol], the IC50 is 176 nM on NLRP3 inflammasome and over 10000 nM in test [1].

Consider `Cc1cc(C(F)(F)F)cc(O)c1-c1ccc(N2C[C@@H](CO)O[C@H](C)C2)nn1` [Example 296, 2-[6-[(2S,6R)-2-(hydroxymethyl)-6-methyl-morpholin-4-yl]pyridazin-3-yl]-3-methyl-5-(trifluoromethyl)phenol], for which the IC50 at NLRP3 inflammasome was 28 nM; in test [1], over 10000 nM.

With `OC[C@@H]1CN(c2ccc(-c3c(O)cccc3Cl)nn2)CCO1` [Example 48, 3-chloro-2-[6-[(2S)-2-(hydroxymethyl)morpholin-4-yl]pyridazin-3-yl]phenol], the values for the IC50 (on NLRP3 inflammasome; in test [1]) were 386 nM and over 10000 nM, respectively.

With `Cc1cc(C(F)(F)F)cc(O)c1-c1ccc(N2C[C@@H](CO)O[C@@H](C)C2)nn1` [Example 297, 2-[6-[(2S,6S)-2-(hydroxymethyl)-6-methyl-morpholin-4-yl]pyridazin-3-yl]-3-methyl-5-(trifluoromethyl)phenol], the IC50 on NLRP3 inflammasome is 11 nM; in test [1], over 10000 nM.

Consider `CC(=O)N1CC[C@H]2OCCN(c3nnc(-c4c(C)cc(C)cc4O)cc3C(F)F)[C@H]2C1` [Example 405, 1-[(4aS,8aR)-4-[4-(difluoromethyl)-6-(2-hydroxy-4,6-dimethyl-phenyl)pyridazin-3-yl]-3,4a,5,7,8,8a-hexahydro-2H-pyrido[4,3-b][1,4]oxazin-6-yl]ethanone], for which the IC50 is 89 nM at NLRP3 inflammasome and over 10000 nM in test [1].

Take `OC[C@@H]1CN(c2cc(C(F)(F)F)c(-c3ccc(Cl)cc3O)nn2)CCO1` [Example 160, 5-chloro-2-[6-[(2S)-2-(hydroxymethyl)morpholin-4-yl]-4-(trifluoromethyl)pyridazin-3-yl]phenol]: the IC50 at NLRP3 inflammasome was 171 nM; in test [1], over 10000 nM.

For the molecule `Cc1cc(C)c(-c2ccc(N3C[C@@H](CO)O[C@H](C)C3)nn2)c(O)c1` [Example 359, 2-[6-[(2S,6R)-2-(hydroxymethyl)-6-methyl-morpholin-4-yl]pyridazin-3-yl]-3,5-dimethyl-phenol], the IC50 at NLRP3 inflammasome was 98 nM; in test [1], over 10000 nM.

On to `OC[C@@H]1CN(c2cc(C(F)F)c(-c3ccc(Cl)cc3O)nn2)CCO1` [Example 145, 5-chloro-2-[4-(difluoromethyl)-6-[(2S)-2-(hydroxymethyl)morpholin-4-yl]pyridazin-3-yl]phenol], for which the values for the IC50 (at NLRP3 inflammasome; in test [1]) were 34 nM and over 10000 nM, respectively.

Turning to `Cc1cc(C)c(-c2ccc(N3CCO[C@H]4CN(C5CCC5)CC[C@H]43)nn2)c(O)c1` (racemic) [Example 4, 3,5-dimethyl-2-[6-[rac-(4aS,8aR)-6-cyclobutyl-3,4a,5,7,8,8a-hexahydro-2H-pyrido[3,4-b][1,4]oxazin-1-yl]pyridazin-3-yl]phenol], the IC50 was 251 nM on NLRP3 inflammasome and over 10000 nM in test [1].
